Assay results taken from patent US20110230403A1, “GLYCOSIDE DERIVATIVES AND USES THEREOF” (NOVARTIS AG, priority 2008, published 2011).

What was measured:
[1] = biological target: T1, human SGLT1 (Homo sapiens, UniProt P13866); assay: hSGLT1 assay: analogous [14C]-AMG uptake in CHO-K1 or HEK293 cells expressing hSGLT1; type: cell-based; details: n = 1-4, hSGLT1-transfected cells
T1 construct: expressed in transfected cells; host or cells: CHO-K1 or HEK293 cells
T1 sequence (P13866 1-664): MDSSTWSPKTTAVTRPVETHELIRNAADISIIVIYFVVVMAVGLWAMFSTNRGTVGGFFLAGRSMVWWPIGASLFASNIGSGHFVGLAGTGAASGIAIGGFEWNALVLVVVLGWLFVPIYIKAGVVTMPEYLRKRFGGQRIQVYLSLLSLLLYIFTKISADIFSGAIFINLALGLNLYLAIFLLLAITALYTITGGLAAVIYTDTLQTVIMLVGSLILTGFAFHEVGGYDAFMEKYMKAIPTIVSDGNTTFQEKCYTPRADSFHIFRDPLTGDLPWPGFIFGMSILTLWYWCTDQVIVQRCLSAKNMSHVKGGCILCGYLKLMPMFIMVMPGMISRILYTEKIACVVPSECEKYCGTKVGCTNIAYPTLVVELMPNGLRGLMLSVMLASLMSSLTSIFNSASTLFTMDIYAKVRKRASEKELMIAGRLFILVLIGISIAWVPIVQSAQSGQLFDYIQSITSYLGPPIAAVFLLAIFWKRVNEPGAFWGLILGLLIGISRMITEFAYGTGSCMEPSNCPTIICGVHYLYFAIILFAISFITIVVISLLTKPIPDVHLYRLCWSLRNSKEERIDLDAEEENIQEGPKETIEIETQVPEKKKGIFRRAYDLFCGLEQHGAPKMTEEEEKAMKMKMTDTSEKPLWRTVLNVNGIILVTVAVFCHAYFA
Procedure: To determine human SGLT1 inhibitory activity, an analogous test was set up in which the cDNA for hSGLTI (Genbank Ace. No. NM000343) instead of hSGLT2 cDNA is expressed in CHO-K1 or HEK293 cells. The uptake assay buffer in the case of the hSGLT1 assay contains 10 mM HEPES, 5 mM Tris, 140 mM NaCl, 2 mM KCl, 1 mM CaCl2, and 1 mM MgCl2, pH 7.4 containing 0.5 mM of α-methyl-D-glucopyranoside (AMG), 10 μM of [^14C]-α-methyl-D-glucopyranoside and different inhibitor concentrations.

[2] = biological target: T2, human sodium glucose cotransporter 2 (Homo sapiens, UniProt P31639); assay: SGLT-2 assay: 14C-AMG uptake in CHO-hSGLT2 or HEK293-hSGLT2 cells; type: cell-based; details: n = 1-4, hSGLT2-transfected cells, read-out: SGLT2 IC50 nM (n = 1-4)
T2 construct: expressed in transfected cells; host or cells: CHO-K1 (ATCC CCL-61) or HEK293 (ATCC CRL-1573), stably transfected with pZeoSV expression vector
T2 sequence (P31639 1-672): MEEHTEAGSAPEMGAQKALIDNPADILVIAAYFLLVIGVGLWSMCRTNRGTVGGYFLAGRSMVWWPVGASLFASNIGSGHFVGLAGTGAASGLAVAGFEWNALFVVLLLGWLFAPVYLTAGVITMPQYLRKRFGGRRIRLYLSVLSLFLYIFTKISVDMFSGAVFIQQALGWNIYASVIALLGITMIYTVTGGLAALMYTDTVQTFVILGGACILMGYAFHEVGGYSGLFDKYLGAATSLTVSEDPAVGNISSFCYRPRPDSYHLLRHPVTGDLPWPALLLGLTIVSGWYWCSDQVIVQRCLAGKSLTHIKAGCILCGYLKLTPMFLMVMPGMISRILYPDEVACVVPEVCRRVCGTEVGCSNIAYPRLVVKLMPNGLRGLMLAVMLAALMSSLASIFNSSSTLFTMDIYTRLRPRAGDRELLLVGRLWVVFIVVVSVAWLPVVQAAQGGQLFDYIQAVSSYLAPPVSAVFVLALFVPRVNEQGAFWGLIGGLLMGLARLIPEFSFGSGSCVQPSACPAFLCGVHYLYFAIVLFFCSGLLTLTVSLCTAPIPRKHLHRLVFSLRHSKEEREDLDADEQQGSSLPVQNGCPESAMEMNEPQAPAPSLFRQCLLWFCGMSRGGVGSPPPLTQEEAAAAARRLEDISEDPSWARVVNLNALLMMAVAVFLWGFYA
Procedure: These cell lines transport 14 C-labelled alpha-methyl-glucopyranoside (14 C-AMG, Amersham) into the interior of the cell in sodium-dependent manner.
The SGLT-2 assay is carried out as follows: CHO-hSGLT2 cells are cultivated in Ham's F12 Medium (BioWhittaker) with 10% foetal calf serum and 250 μg/mL zeocin (Invitrogen), and HEK293-hSGLT2 cells are cultivated in DMEM medium with 10% foetal calf serum and 250 μg/mL zeocin (Invitrogen). The cells are detached from the culture flasks by washing twice with PBS and subsequently treating with trypsin/EDTA. After the addition of cell culture medium the cells are centrifuged, resuspended in culture medium and counted in a Casy cell counter. Then 40,000 cells per well are seeded into a white, 96-well plate coated with poly-D-Iysine and incubated overnight at 37° C., 5% CO2. The cells are washenwice with 250 μl of assay buffer (Hanks Balanced Salt Solution, 137 mM NaCl, 5.4 mM KCl, 2.8 mM CaCl2, 1.2 mM MgSO4 and 10 mM HEPES (pH 7.4), 50 μg/mL of gentamycin). 250 μl of assay buffer and 5 μl of test compound are then added to each well and the plate is incubated for a further 15 minutes in the incubator. 5 μl of 10% DMSO are used as the negative control. The reaction is started by adding 5 μl of 14 C-AMG (0.05 μCi) to each well. After 2 hours' incubation at 37° C., 5% CO2, the cells are washed again with 250 μl of PBS (200C) and then lysed by the addition of 25 μl of 0.1 N NaOH (5 min. at 37° C.). 200 μl of MicroScint20 (Packard) are added to each well and incubation is continued for a further 20 min at 37° C. After this incubation the radioactivity of the 14 C-AMG absorbed is measured in a Topcount (Packard) using a 14 C scintillation program.

IC50 [1]	IC50 [2]	SMILES
< 50 nM	3 nM	CCOc1ccc(Cc2cc([C@@H]3O[C@H](CSc4cc(C(=O)N5CCC5)ccc4F)[C@@H](O)[C@H](O)[C@H]3O)ccc2Cl)cc1 [Example 37, Azetidin-1-yl-(3-{(2S,3S,4R,5R,6S)-6-[4-chloro-3-(4-ethoxy-benzyl)-phenyl]-3,4,5-trihydroxy-tetrahydro-pyran-2-ylmethylsulfanyl}-4-fluoro-phenyl)-methanone]
< 50 nM	13 nM	CCOc1ccc(Cc2cc([C@@H]3O[C@H](CSc4cccc(C(=O)NC)c4)[C@@H](O)[C@H](O)[C@H]3O)ccc2Cl)cc1 [Example 40, 3-{(2S,3S,4R,5R,6S)-6-[4-Chloro-3-(4-ethoxy-benzyl)-phenyl]-3,4,5-trihydroxy-tetrahydro-pyran-2-ylmethylsulfanyl}-N-methyl-benzamide]
< 50 nM	14 nM	CCOc1ccc(Cc2cc([C@@H]3O[C@H](CSc4cccc(C(=O)N5CCCC5)c4)[C@@H](O)[C@H](O)[C@H]3O)ccc2Cl)cc1 [Example 47, (3-{(2S,3S,4R,5R,6S)-6-[4-Chloro-3-(4-ethoxy-benzyl)-phenyl]-3,4,5-trihydroxy-tetrahydro-pyran-2-ylmethylsulfanyl}-phenyl)-pyrrolidin-1 yl-methanone]
< 50 nM	8 nM	CCOc1ccc(Cc2cc([C@@H]3O[C@H](CSc4cccc(C(=O)N(C)C)c4)[C@@H](O)[C@H](O)[C@H]3O)ccc2Cl)cc1 [Example 50, 3-{(2S,3S,4R,5R,6S)-6-[4-Chloro-3-(4-ethoxy-benzyl)-phenyl]-3,4,5-trihydroxy-tetrahydro-pyran-2-ylmethylsulfanyl}-N,N-dimethyl-benzamide]
< 100 nM	42 nM	CCOc1ccc(Cc2cc([C@@H]3O[C@H](CSc4cccc(C(N)=O)c4)[C@@H](O)[C@H](O)[C@H]3O)ccc2Cl)cc1 [Example 78, 3-{(2S,3S,4R,5R,6S)-6-[4-Chloro-3-(4-ethoxy-benzyl)-phenyl]-3,4,5-trihydroxy-tetrahydro-pyran-2-ylmethylsulfanyl}-benzamide]
< 100 nM	13 nM	CCOc1ccc(Cc2cc([C@@H]3O[C@H](CSc4cccc(NC(C)=O)c4)[C@@H](O)[C@H](O)[C@H]3O)ccc2Cl)cc1 [Example 80, N-(3-{(2S,3S,4R,5R,6S)-6-[4-Chloro-3-(4-ethoxy-benzyl)-phenyl]-3,4,5-trihydroxy-tetrahydro-pyran-2-ylmethylsulfanyl}-phenyl)-acetamide]
